Columns and labels:
Experiment in all cases: relative viability (nuclei count vs DMSO), 5 days (fraction); higher = more cells survive
RO-3306 + Vorinostat = compound: C1=CC2=C(C=CC(=C2)C=C3C(=O)NC(=NCC4=CC=CS4)S3)N=C1 [RO-3306] + O=C(CCCCCCC(=O)Nc1ccccc1)NO [Vorinostat] (partner 1 µM)
In short: (§1)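 Dosing by pin tool came one day after lung cancer cell lines were seeded in 1536-well plates, using either one drug or a fixed anchor-drug dose plus five library-drug doses (not always all listed) in √10 steps. After 5 days, nuclei were counted on 4× images. Relative viability is treated-well nuclei count divided by vehicle-well nuclei count, and values are medians of duplicate plates.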

[1] = compound: O=S(=O)(c1ccccc1)N(CC(F)(F)F)c1ccc(C(O)(C(F)(F)F)C(F)(F)F)cc1 + CC1(C)CCC(c2ccc(Cl)cc2)=C(CN2CCN(c3ccc(C(=O)NS(=O)(=O)c4ccc(N[C@H](CCN5CCOCC5)CSc5ccccc5)c(S(=O)(=O)C(F)(F)F)c4)cc3)CC2)C1 [Navitoclax] (partner 0.5 µM)
In short: as §1

RO-3306 + Alpelisib = compound: C1=CC2=C(C=CC(=C2)C=C3C(=O)NC(=NCC4=CC=CS4)S3)N=C1 [RO-3306] + Cc1nc(NC(=O)N2CCC[C@H]2C(N)=O)sc1-c1ccnc(C(C)(C)C(F)(F)F)c1 [Alpelisib] (partner 2 µM)
In short: as §1

RO-3306 + Crizotinib = compound: C1=CC2=C(C=CC(=C2)C=C3C(=O)NC(=NCC4=CC=CS4)S3)N=C1 [RO-3306] + C[C@@H](Oc1cc(-c2cnn(C3CCNCC3)c2)cnc1N)c1c(Cl)ccc(F)c1Cl [Crizotinib] (partner 1 µM)
In short: as §1

| Cell Line | relative viability (RO-3306 + Vorinostat; first compound 0.01 µM) | relative viability (RO-3306 + Vorinostat; first compound 0.03162 µM) | relative viability (RO-3306 + Vorinostat; first compound 0.1 µM) | relative viability (RO-3306 + Vorinostat; first compound 0.3162 µM) | relative viability (RO-3306 + Vorinostat; first compound 1 µM) | relative viability ([1]; first compound 0.8 µM) | relative viability ([1]; first compound 2.53 µM) | relative viability ([1]; first compound 8 µM) | relative viability (RO-3306 + Alpelisib; first compound 0.01 µM) | relative viability (RO-3306 + Alpelisib; first compound 0.03162 µM) | relative viability (RO-3306 + Alpelisib; first compound 0.1 µM) | relative viability (RO-3306 + Alpelisib; first compound 0.3162 µM) | relative viability (RO-3306 + Alpelisib; first compound 1 µM) | relative viability (RO-3306 + Crizotinib; first compound 0.01 µM) | relative viability (RO-3306 + Crizotinib; first compound 0.03162 µM) | relative viability (RO-3306 + Crizotinib; first compound 0.1 µM) | relative viability (RO-3306 + Crizotinib; first compound 0.3162 µM) | relative viability (RO-3306 + Crizotinib; first compound 1 µM) |
| --- | --- | --- | --- | --- | --- | --- | --- | --- | --- | --- | --- | --- | --- | --- | --- | --- | --- | --- |
| LU99A | 0.648 | 0.626 | 0.461 | 0.432 | 0.388 | 1.02 | 0.694 | 0.776 | 0.492 | 0.452 | 0.564 | 0.472 | 0.491 | 0.644 | 0.556 | 0.576 | 0.579 | 0.568 |
| LXF-289 | 0.789 | 0.807 | 0.695 | 0.749 | 0.744 | 0.879 | 0.826 | 0.852 | 1.08 | 1.01 | 1.03 | 1.05 | 1.05 | 0.846 | 0.817 | 0.808 | 0.726 | 0.76 |
| NCI-H23 | 0.828 |  | 0.547 | 0.55 | 0.501 | 1.11 | 0.804 | 0.817 | 0.729 | 0.685 | 0.573 | 0.69 | 0.517 | 0.493 | 0.304 | 0.462 | 0.56 | 0.425 |
| NCI-H322M | 0.878 | 0.859 | 0.807 | 0.868 | 0.584 | 1.29 | 1.12 | 1.2 | 0.8 | 0.7 | 0.707 | 0.888 | 0.827 | 0.861 | 0.999 | 1.1 | 0.95 | 0.953 |
| NCI-H441 | 0.888 | 0.495 | 0.837 | 1.23 | 0.638 | 0.411 | 0.604 | 0.613 | 1 | 0.556 | 0.563 | 0.657 | 0.66 | 0.824 | 0.424 | 0.591 | 0.867 | 0.485 |
| NCI-H460 | 1.19 | 0.517 | 0.677 | 0.976 | 0.448 | 1.42 | 1.01 | 0.967 | 0.571 |  | 0.503 | 0.656 | 0.426 | 0.958 |  | 1.02 | 0.9 | 0.436 |
| NCI-H520 | 0.779 | 0.589 | 0.676 | 0.693 | 0.664 | 0.943 | 1.3 | 1.38 | 0.992 | 0.811 | 0.838 | 0.854 | 0.836 | 0.877 | 0.423 | 0.772 | 0.825 | 0.748 |
| NCI-H596 | 0.589 | 0.512 | 0.533 | 0.726 | 0.713 | 1.02 | 0.904 | 0.826 | 0.443 | 0.48 | 0.49 | 0.511 | 0.432 | 0.968 | 0.896 | 0.998 | 1.07 | 1.08 |
| NCI-H647 | 0.708 | 0.512 | 0.371 | 0.6 | 0.473 | 1.3 | 1.26 | 1.01 | 1.76 | 0.954 | 1.09 | 1.16 | 1.28 | 1.42 | 0.869 | 1.02 | 1.06 | 1.15 |
